US20250283038A1, “COMPOUNDS INDUCING PRODUCTION OF PROTEINS BY IMMUNE CELLS” (UNIVERSITE PARIS CITE, priority 2022, published 2025)

System: human B cells
Test: IL-10 induction in human B cells cultivated with anti-IgM plus CpG, IL-10 measured in cell culture supernatants
Type: cell-based
Details: 2 consecutive days, molecule at 0.25 μM final concentration
Method: Human B cells isolated magnetically through negative selection (B Cell Isolation Kit II, human, Miltenyi ref: 130-091-151) were cultivated for 2 consecutive days in the presence of anti-IgM plus CpG in the presence of the indicated molecule (see table 3) at 0.25μM final concentration. IL-10 was measured in cell culture supernatants.
Human B cells isolated magnetically through negative selection (B Cell Isolation Kit II, human, Miltenyi ref: 130-091-151) were cultivated for 2 consecutive days in the presence of anti-IgM plus CpG in the presence of DMSO (as control) or in the presence of the tested molecules at 0.25 microM final concentration. IL-10 was measured in cell culture supernatants. NS: non stimulated B cell culture condition.

## N-(2-(4-fluorophenyl)imidazo[1,2-a]pyridin-6-yl)-2-methoxybenzamide [Compound 217]
  II-10 Induction Mean (pg/mL) human: 2.06 pg/mL
